Measured values taken from patent US6603023B2 (priority 1996, dated 2003).
Like-named read-outs stand apart in the source and are kept apart here. Marks after values point to notes of the source that are not given here.

What was measured:
[1] = test system: human mammary carcinoma MX-1 xenograft
Protocol: (§1) DMSO was used as a vehicle for epothilones. Each mouse received ≦40 μL DMSO in all experiments.
(§2) Athymic nude mice (nu/nu) were used for MX-1 and MCF-7/Adr human mammary carcinoma xenografts. Mice were obtained from Taconic Laboratory Animals and Service (Germantown, N.Y.: outbred, Swiss background).

[2] = test system: MDR human mammary adenocarcinoma MCF-7/Adr xenograft; assay: in vivo
Protocol: as §1, §2

[3] = test system: Human Lymphoblastic Leukemia CCRF-CEM; assay: CCRF-CEM xenograft in nude mice, i.v. 6 h infusion; type: in vivo; conditions: for Average Body Weight, Day 21: initial weight
[4] = camptothecin 3 mg/kg i.p. Q2Dx5 from day 8, day 11
[5] = camptothecin 3 mg/kg i.p. Q2Dx5 from day 8, day 13
[6] = camptothecin 3 mg/kg i.p. Q2Dx5 from day 8, day 15
[7] = camptothecin 3 mg/kg i.p. Q2Dx5 from day 8, day 17
[8] = high doses: Taxol 12, Adriamycin 3, Camptothecin 3.0 mg/kg i.p. day 8,10,12,14,16
[9] = high doses: dEpoB 25, EpoB 0.6, Taxol 10, Vinblastine 0.4 mg/kg i.p. Q2D from day 7
[10] = low doses: dEpoB 15, EpoB 0.3, Taxol 5, Vinblastine 0.2 mg/kg i.p. Q2D day 7-15
[11] = Dose DesoxyepoB 40, Taxol 20, i.v. infusion 6 hr on day 21,23,25,27
[12] = Table 26, Dose Q2D x 4: DesoxyepoB 40, Taxol 20

CC[C@@]1(O)C(=O)OCc2c1cc1n(c2=O)Cc2cc3ccccc3nc2-1 [Campothecin, camptothecin]
Therapeutic effect Rank Order ([1]; MX-1, i.p., comparison with Camptothecin, VBL, EpoB (order wraps over rows r7-r8)): dEpoB > Camptothecin > | toxicity ([2]; CPT 3 mg/kg Q2Dx5 i.p.): moderate toxicity without lethality | Therapeutic effect Rank Order ([2]; MCF-7/Adr, i.p. (order wraps over rows r13-r14)): dEpoB >> Camptothecin > | Toxicity Death ([2]; camptothecin 3 mg/kg i.p. Q2Dx5 from day 8): 0/6 | Average Body Weight Change [2, 4]: -0.6 g | Average Tumor Size (T/C) [2, 4]: 0.95 | Average Body Weight Change [2, 5]: -0.4 g | Average Tumor Size (T/C) [2, 5]: 0.76 | Average Body Weight Change [2, 6]: -0.8 g | Average Tumor Size (T/C) [2, 6]: 0.61 | Average Body Weight Change [2, 7]: -0.9 g | Average Tumor Size (T/C) [2, 7]: 0.43* | tumor size reduction ([2]; camptothecin 3 mg/kg, day 17): 57% | Average Body Weight (change), Day 11 [2, 8]: -0.6 g | Average Body Weight (change), Day 13 [2, 8]: -0.4 g | Average Body Weight (change), Day 15 [2, 8]: -0.8 g | Average Body Weight Change, Day 17 [2, 8]: -0.9 g | Average Tumor Volume (T/C), Day 11 [2, 8]: 0.95 T/C | Average Tumor Volume (T/C), Day 13 [2, 8]: 0.76 T/C | Average Tumor Volume (T/C), Day 15 [2, 8]: 0.61 T/C | Average Tumor Volume (T/C), Day 17 [2, 8]: 0.43 T/C | Died [2, 8]: 0/6 | Average Body Weight, Day 8 ([2]; initial weight, first treatment day, high doses: Taxol 12, Adriamycin 3, Camptothecin 3.0 mg/kg i.p. day 8,10,12,14,16): 24.5 g

C/C1=C/C[C@@H](/C(C)=C/c2csc(C)n2)OC(=O)C[C@H](O)C(C)(C)C(=O)[C@H](C)[C@@H](O)[C@@H](C)CCC1 [Desoxyepothione B]
cured on day 35 (no detectable tumor) ([1]; Desoxyepothilone B 25 mg/kg i.p. Q2D day 7-15): (1/6 cured on day 35) | Average Body Weight (change), Day 11 [1, 9]: +0.4 g | Average Body Weight (change), Day 13 [1, 9]: +0.7 g | Average Body Weight (change), Day 15 [1, 9]: +1.0 g | Average Body Weight Change, Day 17 [1, 9]: +0.7 g | Average Tumor Volume (T/C), Day 11 [1, 9]: 0.38 T/C | Average Tumor Volume (T/C), Day 13 [1, 9]: 0.11 T/C | Average Tumor Volume (T/C), Day 15 [1, 9]: 0.05 T/C | Average Tumor Volume (T/C), Day 17 [1, 9]: 0.04 T/C | Note: died (mice died/total) [1, 9]: 0/6 died | Average Body Weight, Day 7 ([1]; initial weight, first treatment day, high doses: dEpoB 25, EpoB 0.6, Taxol 10, Vinblastine 0.4 mg/kg i.p. Q2D from day 7): 27.0 g | Average Body Weight (change), Day 11 [1, 10]: +0.8 g | Average Body Weight (change), Day 13 [1, 10]: +1.1 g | Average Body Weight (change), Day 15 [1, 10]: +1.6 g | Average Body Weight Change, Day 17 [1, 10]: +1.5 g | Average Tumor Volume (T/C), Day 11 [1, 10]: 0.65 T/C | Average Tumor Volume (T/C), Day 13 [1, 10]: 0.46 T/C | Average Tumor Volume (T/C), Day 15 [1, 10]: 0.49 T/C | Average Tumor Volume (T/C), Day 17 [1, 10]: 0.41 T/C | Note: died (mice died/total) [1, 10]: 0/6 died

C/C1=C/C[C@@H](/C(C)=C/c2csc(C)n2)OC(=O)C[C@H](O)C(C)(C)C(=O)[C@H](C)[C@@H](O)[C@@H](C)CCC1 [DesoxyepoB]
Average Body Weight Changes, Day 23 [3, 11]: -1.4 g | Average Body Weight Changes, Day 25 [3, 11]: -3.6 g | Average Body Weight Changes, Day 27 [3, 11]: -3.9 g | Average Body Weight Changes, Day 29 [3, 11]: -5.2 g | Average Body Weight Changes, Day 31 [3, 11]: -4.2 g | Average Body Weight Changes, Day 33 [3, 11]: -3.1 g | Average Body Weight Changes, Day 35 [3, 11]: -2.3 g | Average Body Weight Changes, Day 37 [3, 11]: -1.2 g | Average Body Weight Changes, Day 39 [3, 11]: -0.2 g | Average Body Weight Changes, Day 41 [3, 11]: +0.9 g | Average Tumor Size (T/C), Day 21 [3, 11]: 1.10 T/C | Average Tumor Size (T/C), Day 23 [3, 11]: 0.73 T/C | Average Tumor Size (T/C), Day 25 [3, 11]: 0.31 T/C | Average Tumor Size (T/C), Day 27 [3, 11]: 0.09 T/C | Average Tumor Size (T/C), Day 29 [3, 11]: 0 T/C | Average Tumor Size (T/C), Day 31 [3, 11]: 0 T/C | Average Tumor Size (T/C), Day 33 [3, 11]: 0 T/C | Average Tumor Size (T/C), Day 35 [3, 11]: 0 T/C | Proportion of Tumor Disappearance (n/total), Day 21 [3, 11]: 0/3 | Proportion of Tumor Disappearance (n/total), Day 23 [3, 11]: 0/3 | Proportion of Tumor Disappearance (n/total), Day 25 [3, 11]: 0/3 | Proportion of Tumor Disappearance (n/total), Day 27 [3, 11]: 0/3 | Proportion of Tumor Disappearance (n/total), Day 29 [3, 11]: 3/3 | Proportion of Tumor Disappearance (n/total), Day 31 [3, 11]: 3/3 | Proportion of Tumor Disappearance (n/total), Day 33 [3, 11]: 3/3 | Proportion of Tumor Disappearance (n/total), Day 35 [3, 11]: 3/3 | Proportion of Tumor Disappearance (n/total), Day 37 [3, 11]: 1/3 | Proportion of Tumor Disappearance (n/total), Day 39 [3, 11]: 1/3 | Proportion of Tumor Disappearance (n/total), Day 41 [3, 11]: 0/3 | Average Body Weight Change, Day 23 [3, 12]: -1.4 g | Average Body Weight Change, Day 25 [3, 12]: -3.6 g | Average Body Weight Change, Day 27 [3, 12]: -3.9 g | Average Body Weight Change, Day 29 [3, 12]: -5.2 g | Average Body Weight Change, Day 31 [3, 12]: -4.2 g | Average Tumor Size (T/C), Day 23 [3, 12]: 0.68 T/C | Average Tumor Size (T/C), Day 25 [3, 12]: 0.30 T/C | Average Tumor Size (T/C), Day 27 [3, 12]: 0.09 T/C | Average Tumor Size (T/C), Day 29 [3, 12]: 0 T/C | Average Tumor Size (T/C), Day 31 [3, 12]: 0 T/C | Tumor Disappearance [3, 12]: 3/3 | Average Body Weight, Day 21 [3, 12]: 26.6 g | Average Body Weight, Day 21 [3, 11]: 26.6 g
